The source of these data is ChEMBL document CHEMBL5236585, “Design, synthesis and antifungal activities of novel triazole derivatives with selenium-containing hydrophobic side chains” (Bioorg Med Chem Lett, 2022).

≈ marks a conversion by molar mass, not a printed value.

For data set [1], the system named is Candida albicans. In words: Antifungal activity against Candida albicans CPCC 400616 assessed as inhibition of fungal growth by microdilution method. The data set is classed as functional. For orientation: Broth dilution looks for growth in wells or tubes with falling amounts of substance.
Data set [2] deals with Candida albicans. The experiment in a line: Antifungal activity against Candida albicans ATCC SC5314 assessed as inhibition of fungal growth by microdilution method. Format: functional.
Data set [3] has as its system Nakaseomyces glabratus. The experiment in a line: Antifungal activity against clinical isolate Candida glabrata assessed as inhibition of fungal growth by microdilution method. Format: functional.
Data set [4] has as its system Candida parapsilosis. In words: Antifungal activity against Candida parapsilosis 22019 assessed as inhibition of fungal growth by microdilution method. To be noted: Lodderomyces parapsilosis. The data set is classed as functional.
In data set [5] the test system is Pichia kudriavzevii. The experiment in a line: Antifungal activity against Candida krusei AS 2.1045 assessed as inhibition of fungal growth by microdilution method. Format: functional.
Data set [6] has as its system Candida tropicalis. In words: Antifungal activity against Candida tropicalis CGMCC 2.3739 assessed as inhibition of fungal growth by microdilution method. Format: functional.
For data set [7], the system named is Cryptococcus neoformans. The experiment in a line: Antifungal activity against Cryptococcus neoformans CGMCC 2.3161 assessed as inhibition of fungal growth by microdilution method. The data set is classed as functional.
The test system of data set [8] is Aspergillus fumigatus. The experiment in a line: Antifungal activity against Aspergillus fumigatus CGMCC 3.7795 assessed as inhibition of fungal growth by microdilution method. Format: functional.
In data set [9] the target is T1, Lanosterol 14-alpha demethylase (Candida albicans (strain SC5314 / ATCC MYA-2876) (Yeast), UniProt P10613). The experiment in a line: Inhibition of CYP51 in Candida albicans SC5314 assessed as ergosterol level at 1 ug/ml by GC-MS analysis (reference value: 98.3 %). Also noted: scale not given: the % may be the effect or the level left. To be noted: at 1 µg/mL.
T1 sequence (P10613 whole entry): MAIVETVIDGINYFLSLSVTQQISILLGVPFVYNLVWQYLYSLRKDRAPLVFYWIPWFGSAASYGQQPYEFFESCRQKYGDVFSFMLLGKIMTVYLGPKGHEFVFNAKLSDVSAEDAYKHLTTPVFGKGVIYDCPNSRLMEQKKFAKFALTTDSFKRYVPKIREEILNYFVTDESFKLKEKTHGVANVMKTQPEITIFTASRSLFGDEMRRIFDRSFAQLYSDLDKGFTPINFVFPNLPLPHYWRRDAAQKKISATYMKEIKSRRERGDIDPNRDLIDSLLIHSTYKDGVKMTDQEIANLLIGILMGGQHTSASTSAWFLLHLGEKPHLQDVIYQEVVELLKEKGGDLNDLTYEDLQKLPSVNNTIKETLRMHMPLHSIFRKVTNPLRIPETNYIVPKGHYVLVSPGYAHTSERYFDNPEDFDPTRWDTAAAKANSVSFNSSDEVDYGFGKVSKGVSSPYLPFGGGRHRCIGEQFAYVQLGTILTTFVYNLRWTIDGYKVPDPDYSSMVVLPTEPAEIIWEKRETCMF
Data set [10] concerns the target T1, Lanosterol 14-alpha demethylase. In words: Inhibition of CYP51 in Candida albicans SC5314 assessed as ergosterol level at 2 ug/ml by GC-MS analysis (reference value: 98.3 %). Set-up: scale not given: the % may be the effect or the level left. To be noted: at 2 µg/mL.
Data set [11] shares this target. The experiment in a line: Inhibition of CYP51 in Candida albicans SC5314 assessed as ergosterol level at 4 ug/ml by GC-MS analysis (reference value: 98.3 %). Also noted: scale not given: the % may be the effect or the level left. To be noted: at 4 µg/mL.
For data set [12] the target is unchanged. In words: Inhibition of CYP51 in Candida albicans SC5314 assessed as ergosterol level at 8 ug/ml by GC-MS analysis (reference value: 98.3 %). Set-up: scale not given: the % may be the effect or the level left. As to conditions: at 8 µg/mL.
Data set [13] has the same target. In words: Inhibition of CYP51 in Candida albicans SC5314 assessed as obtusifoliol level at 1 ug/ml by GC-MS analysis (reference value: 0 %). Set-up: scale not given: the % may be the effect or the level left. As to conditions: at 1 µg/mL.
For data set [14] the target is unchanged. The experiment in a line: Inhibition of CYP51 in Candida albicans SC5314 assessed as obtusifoliol level at 2 ug/ml by GC-MS analysis (reference value: 0 %). To be noted: at 2 µg/mL. Also noted: scale not given: the % may be the effect or the level left.
Data set [15] has the same target. The experiment in a line: Inhibition of CYP51 in Candida albicans SC5314 assessed as obtusifoliol level at 4 ug/ml by GC-MS analysis (reference value: 0 %). Also noted: scale not given: the % may be the effect or the level left. To be noted: at 4 µg/mL.
Data set [16] has the same target. In words: Inhibition of CYP51 in Candida albicans SC5314 assessed as obtusifoliol level at 8 ug/ml by GC-MS analysis (reference value: 0 %). As to conditions: at 8 µg/mL. Also noted: scale not given: the % may be the effect or the level left.
The target is the same in data set [17]. In words: Inhibition of CYP51 in Candida albicans SC5314 assessed as lanosterol level at 1 ug/ml by GC-MS analysis (reference value: 1.7 %). Also noted: scale not given: the % may be the effect or the level left. To be noted: at 1 µg/mL.
Data set [18] has the same target. The experiment in a line: Inhibition of CYP51 in Candida albicans SC5314 assessed as lanosterol level at 2 ug/ml by GC-MS analysis (reference value: 1.7 %). Set-up: scale not given: the % may be the effect or the level left. As to conditions: at 2 µg/mL.
The target is the same in data set [19]. The experiment in a line: Inhibition of CYP51 in Candida albicans SC5314 assessed as lanosterol level at 4 ug/ml by GC-MS analysis (reference value: 1.7 %). Also noted: scale not given: the % may be the effect or the level left. To be noted: at 4 µg/mL.
The target is the same in data set [20]. The experiment in a line: Inhibition of CYP51 in Candida albicans SC5314 assessed as lanosterol level at 8 ug/ml by GC-MS analysis (reference value: 1.7 %). Also noted: scale not given: the % may be the effect or the level left. As to conditions: at 8 µg/mL.
Data set [21] shares this target. In words: Inhibition of CYP51 in Candida albicans SC5314 assessed as eburicol level at 1 ug/ml by GC-MS analysis (reference value: 0 %). Set-up: scale not given: the % may be the effect or the level left. To be noted: at 1 µg/mL.
Data set [22] has the same target. The experiment in a line: Inhibition of CYP51 in Candida albicans SC5314 assessed as eburicol level at 2 ug/ml by GC-MS analysis (reference value: 0 %). Set-up: scale not given: the % may be the effect or the level left. To be noted: at 2 µg/mL.
Data set [23] shares this target. In words: Inhibition of CYP51 in Candida albicans SC5314 assessed as eburicol level at 4 ug/ml by GC-MS analysis (reference value: 0 %). Set-up: scale not given: the % may be the effect or the level left. To be noted: at 4 µg/mL.
Data set [24] shares this target. The experiment in a line: Inhibition of CYP51 in Candida albicans SC5314 assessed as eburicol level at 8 ug/ml by GC-MS analysis (reference value: 0 %). Set-up: scale not given: the % may be the effect or the level left. As to conditions: at 8 µg/mL.
In data set [25] the test system is HL-60. In words: Cytotoxicity against human HL-60 cells assessed as inhibition of cell growth by MTT assay. Format: functional, cell-based.
Data set [26] concerns MDA-MB-231. In words: Cytotoxicity against human MDA-MB-231 cells assessed as inhibition of cell growth by MTT assay. The data set is classed as functional, cell-based. Background: Formazan colour is commonly taken as a measure of viable cells.
For data set [27], the system named is PC-3. In words: Cytotoxicity against human PC-3 cells assessed as inhibition of cell growth by MTT assay. Format: functional, cell-based.
The subject of data set [28] is Candida albicans. The experiment in a line: Antifungal activity against Candida albicans CPCC 400616 assessed as inhibition of fungal growth. The data set is classed as functional.
The subject of data set [29] is Candida albicans. The experiment in a line: Antifungal activity against Candida albicans ATCC SC5314 assessed as inhibition of fungal growth. The data set is classed as functional.
Data set [30] addresses T1, Lanosterol 14-alpha demethylase. In words: Inhibition of CYP51 in Candida albicans SC5314 assessed as ergosterol level at 16 ug/ml by GC-MS analysis (reference value: 98.3 %). As to conditions: at 16 µg/mL. Also noted: scale not given: the % may be the effect or the level left.
Data set [31] has the same target. In words: Inhibition of CYP51 in Candida albicans SC5314 assessed as ergosterol level at 32 ug/ml by GC-MS analysis (reference value: 98.3 %). Also noted: scale not given: the % may be the effect or the level left. As to conditions: at 32 µg/mL.
Data set [32] shares this target. The experiment in a line: Inhibition of CYP51 in Candida albicans SC5314 assessed as ergosterol level at 64 ug/ml by GC-MS analysis (reference value: 98.3 %). To be noted: at 64 µg/mL. Also noted: scale not given: the % may be the effect or the level left.
Data set [33] shares this target. In words: Inhibition of CYP51 in Candida albicans SC5314 assessed as obtusifoliol level at 16 ug/ml by GC-MS analysis (reference value: 0 %). Set-up: scale not given: the % may be the effect or the level left. To be noted: at 16 µg/mL.
Data set [34] shares this target. The experiment in a line: Inhibition of CYP51 in Candida albicans SC5314 assessed as obtusifoliol level at 32 ug/ml by GC-MS analysis (reference value: 0 %). As to conditions: at 32 µg/mL. Also noted: scale not given: the % may be the effect or the level left.
Data set [35] shares this target. The experiment in a line: Inhibition of CYP51 in Candida albicans SC5314 assessed as obtusifoliol level at 64 ug/ml by GC-MS analysis (reference value: 0 %). Also noted: scale not given: the % may be the effect or the level left. To be noted: at 64 µg/mL.
For data set [36] the target is unchanged. The experiment in a line: Inhibition of CYP51 in Candida albicans SC5314 assessed as lanosterol level at 16 ug/ml by GC-MS analysis (reference value: 1.7 %). Also noted: scale not given: the % may be the effect or the level left. To be noted: at 16 µg/mL.
Data set [37] shares this target. In words: Inhibition of CYP51 in Candida albicans SC5314 assessed as lanosterol level at 32 ug/ml by GC-MS analysis (reference value: 1.7 %). Also noted: scale not given: the % may be the effect or the level left. To be noted: at 32 µg/mL.
The target is the same in data set [38]. The experiment in a line: Inhibition of CYP51 in Candida albicans SC5314 assessed as lanosterol level at 64 ug/ml by GC-MS analysis (reference value: 1.7 %). Also noted: scale not given: the % may be the effect or the level left. As to conditions: at 64 µg/mL.
Data set [39] has the same target. In words: Inhibition of CYP51 in Candida albicans SC5314 assessed as eburicol level at 16 ug/ml by GC-MS analysis (reference value: 0 %). Also noted: scale not given: the % may be the effect or the level left. As to conditions: at 16 µg/mL.
Data set [40] shares this target. In words: Inhibition of CYP51 in Candida albicans SC5314 assessed as eburicol level at 32 ug/ml by GC-MS analysis (reference value: 0 %). Also noted: scale not given: the % may be the effect or the level left. To be noted: at 32 µg/mL.
The target is the same in data set [41]. The experiment in a line: Inhibition of CYP51 in Candida albicans SC5314 assessed as eburicol level at 64 ug/ml by GC-MS analysis (reference value: 0 %). Also noted: scale not given: the % may be the effect or the level left. To be noted: at 64 µg/mL.

What is called MIC is the lowest concentration found to suppress growth. By IC50 is commonly meant the concentration that inhibits the measured activity by half. In general, MFC refers to the smallest concentration meeting the test's criterion for killing the fungus.

As to `COc1ccc([Se]CC(O)(Cn2cncn2)c2ccc(F)cc2F)cc1` (configuration not stated), the MIC is 0.25 µg/mL in data set [1]; 0.02 µg/mL in data set [2]; 0.5 µg/mL in data set [3]; 0.125 µg/mL in data set [4]; 0.5 µg/mL in [5]; 0.125 µg/mL in [6]. Further, the MIC in [7] was found to be 0.03 µg/mL; in data set [8] it was 16 µg/mL. The Activity in data set [9] turned out to be 4.3%; in data set [10] it was 3.6%; in data set [11], 1.4%; in data set [12], 0.38%; in data set [13], 10.1%; in data set [14], 10.8%. The Activity turned out to be 11.2% in data set [15]; 11.8% in data set [16]; 18.4% in [17]; 18.2% in data set [18]; 19.1% in data set [19]; 19.3% in [20]. For the same compound, the Activity in data set [21] is 64.3%; in data set [22] it was 64.7%; in data set [23], 64.5%; in data set [24], 65.7%. Besides, the concentration for half-maximal inhibition (IC50) in [25] was 12.1 µM; in data set [26] it was 18.8 µM; in [27] it was 26.7 µM.
For the compound `Cc1ccccc1[Se]C(Cn1ccnc1)c1ccc(Cl)cc1` (configuration not stated), in [28], the MFC amounted to 0.25 µg/mL (≈ 0.665 µM) and the MIC came to 0.02 µg/mL (≈ 0.0532 µM). Moreover, the MIC in data set [29] was determined as 0.03 µg/mL (≈ 0.0798 µM).
On to `OC(C[Se]Cc1ccccc1Br)(Cn1cncn1)c1ccc(F)cc1F` (configuration not stated), for which the MIC was 0.25 µg/mL in data set [1]; 0.01 µg/mL in [2]; 4 µg/mL in [3]; 0.125 µg/mL in data set [4]; 0.25 µg/mL in data set [5]; 0.25 µg/mL in data set [6]. For the same compound, the MIC amounted to 1 µg/mL in data set [7] and 2 µg/mL in data set [8]. Moreover, the Activity in [12] amounted to 3.5%; in data set [30], 2.1%; in data set [31], 0.48%; in [32], 0.18%; in data set [16], 11.1%; in data set [33], 11.3%. Also, the Activity in data set [34] is reported as 9.28%; in data set [35] it was 11.9%; in data set [20], 19.2%; in [36], 20.3%; in data set [37], 21.1%; in data set [38], 19.6%. In addition, the Activity in data set [24] is on record as 66.2%; in data set [39] it was 66.7%; in data set [40], 69.2%; in data set [41], 69.3%. The IC50 stood at 18.4 µM in data set [25], 17.9 µM in [26] and 15.6 µM in data set [27].
